Experiments:
Assay type in all cases: cell-based
CCL2 protein levels [1] = assay: Secondary screening: CCL2 protein ELISA in M1 polarized bone marrow derived macrophages; conditions: Z score of CCL2 protein (ELISA); 1 μM compound, 24 h, IFNg+LPS (M1) polarized bone marrow derived macrophages
Protocol: (§1) Primary screening was performed on 507 compounds identified by the above-described computational screening. Bone marrow derived macrophages were plated into 96 well plates at d7 post-harvest and incubated with 1 μM compound and polarization reagents for 24 h. Primary screening was performed on cells polarized with interferon gamma (IFNg)+Lipopolysaccharide (LPS) (M1 polarization). Methods of inducing macrophage polarization are known in the art, e.g., as described in Mosser et al., Curr. Protoc. Immunol. 2008 November; Chapter 14:Unit 14.2. doi: 10.1002/0471142735.im1402s83. After 24 h, cell supernatants were removed and screened for IL12b and CCL2 protein levels using an enzyme linked immunosorbent assay (ELISA). Additionally, viability of polarized macrophages incubated with compounds was measured using an MTT assay, a colorimetric assay that measures cell metabolic activity by quantifying NAD(P)H-dependent cellular oxidoreductase reduction of the tetrazolium dye MTT 3-(4,5-dimethylthiazol-2-yl)-2,5-diphenyltetrazolium bromide to its insoluble purple colored formazan. Compounds that increased IL12b protein levels or decreased CCL2 protein levels and reduced viability less than 10% were selected for secondary screening. Secondary screening was performed as described for primary screening with a subset of 141 of the original compounds.

IL12b protein levels [2] = assay: Secondary screening: IL12b protein ELISA in M1 polarized bone marrow derived macrophages; conditions: Z score of IL12b protein (ELISA); 1 μM compound, 24 h, IFNg+LPS (M1) polarized bone marrow derived macrophages
Protocol: as §1

IL-1beta expression = assay: RNA screening: IL-1beta expression in M1 (IFNg+LPS) polarized macrophages, quantitative RT-PCR; design: key: −: significant decrease in mRNA vs control (mRNA levels above 50% of control); −−: significant decrease in mRNA vs control (mRNA levels below 50% of control); +: significant increase in mRNA vs control; =: no significant change vs control; conditions: mRNA vs control; 1 μM compound 1 h before IFNgamma+LPS (M1) polarization, mRNA harvested 6 h post-stimulation
Protocol: (§2) Compounds with the highest activity levels in the primary and secondary screening assays were tested for their effects on transcription of inflammatory cytokines after M1 (IFNg+LPS) and M2 (IL-4) macrophage polarization. Bone marrow derived macrophages were plated into 12 well plates at d7 post-harvest and incubated for 1 h with 1 μM compound prior to polarization. Cell were then polarized by the addition of either IFNgamma+LPS (M1) or IL-4 (M2) and mRNA was harvested 6 h post-stimulation. Quantitative RT-PCR was used to determine the levels of IL-1beta expression in M1 polarized macrophages and of Arginase-1 and TGF-beta expression in M2 polarized macrophages. Compounds were selected from RNA screening that increased IL-1beta expression or decreased Arginase-1 or TGF-beta expression.

TGF-beta expression = assay: RNA screening: TGF-beta expression in M2 (IL-4) polarized macrophages, quantitative RT-PCR; design: key: −: significant decrease in mRNA vs control (mRNA levels above 50% of control); −−: significant decrease in mRNA vs control (mRNA levels below 50% of control); +: significant increase in mRNA vs control; =: no significant change vs control; conditions: mRNA vs control; 1 μM compound 1 h before IL-4 (M2) polarization, mRNA harvested 6 h post-stimulation
Protocol: as §2

Arginase-1 expression = assay: RNA screening: Arginase-1 expression in M2 (IL-4) polarized macrophages, quantitative RT-PCR; conditions: Macrophage; mRNA vs control; 1 μM compound 1 h before IL-4 (M2) polarization, mRNA harvested 6 h post-stimulation; read-out: RNA Screening IL-4 Arg 1
Protocol: as §2

IL12b protein levels [3] = assay: IL12b protein expression (ELISA) after M1 polarization with bulk synthesized compounds; conditions: 10 micromolar compound 1 h before IFNgamma+LPS (M1) polarization, supernatants 24 h post-stimulation, read-out: IL12B protein expression (Percent of Control)
Protocol: Compounds with the highest activity levels in the primary, secondary and tertiary screening assays were resynthesized in bulk and then tested for their effects on protein expression of inflammatory cytokines after M1 (IFNg+LPS) macrophage polarization. Bone marrow derived macrophages were plated into 12 well plates at d7 post-harvest and incubated for 1 h with 10 micromolar compound prior to polarization in the presence of bulk synthesized compounds 1-14. Cells were then polarized by the addition of either IFNgamma+LPS (M1) and cell supernatants were harvested 24 h post-stimulation. Methods of inducing macrophage polarization are known in the art, e.g., as described in Mosser et al., Curr. Protoc. Immunol. 2008 November; Chapter 14:Unit 14.2. doi: 10.1002/0471142735.im1402s83. After 24 h, cell supernatants were removed and screened for IL12b protein levels using an enzyme linked immunosorbent assay (ELISA). Increases in IL12b protein levels induced by compounds were recorded as percent increase in IL12b protein expression compared to IL12b expression in the absence of compounds.

IL12b protein levels [4] = assay: Primary screening: IL12b protein ELISA in M1 polarized bone marrow derived macrophages; conditions: Z score of IL12b protein (ELISA); 1 μM compound, 24 h, IFNg+LPS (M1) polarized bone marrow derived macrophages
Protocol: as §1

CCL2 protein levels [5] = assay: Primary screening: CCL2 protein ELISA in M1 polarized bone marrow derived macrophages; conditions: Z score of CCL2 protein (ELISA); 1 μM compound, 24 h, IFNg+LPS (M1) polarized bone marrow derived macrophages
Protocol: as §1

## COc1cccc2ccc(-c3ccc(N)nc3)nc12 [Compound 2, 5-(8-methoxyquinolin-2-yl)pyridin-2-amine]
CCL2 protein levels [1]
  Secondary Screen ZCCL2: 0.8
IL12b protein levels [2]
  Secondary Screen ZIL12b: 0.81
IL-1beta expression
  RNA Screening Ifng + LPS Il1b: +
TGF-beta expression
  RNA Screening IL-4 Tgfb: − (significant decrease in mRNA vs control (mRNA levels above 50% of control))
Arginase-1 expression
  mrna remaining at 1 µM: > 50%

## CCc1n[nH]c(SCC(=O)N2CCC3(CC2)CC(C(=O)O)N(C)C3)n1 (stereo not drawn) [Compound 12, 8-{[(3-ethyl-1H-1,2,4-triazol-5-yl)thio]acetyl}-2-methyl-2,8-diazaspiro[4.5]decane-3-carboxylic acid]
IL12b protein levels [3]
  activity at 10 µM: 133%

## CN(C)c1cccc(C(=O)N2CCC3(CC2)CC(C(=O)O)N(C)C3)c1 (stereo not drawn) [Compound 13, 8-[3-(dimethylamino)benzoyl]-2-methyl-2,8-diazaspiro[4.5]decane-3-carboxylic acid]
IL12b protein levels [3]
  activity at 10 µM: 125%

## CC(O)c1cn(CC2CCN(C(=O)c3cscn3)CC2)nn1 (stereo not drawn) [Compound 7, 1-(1-{[1-(1,3-thiazol-4-ylcarbonyl)-4-piperidinyl]methyl}-1H-1,2,3-triazol-4-yl)ethanol]
IL12b protein levels [3]
  activity at 10 µM: 114%
IL12b protein levels [4]
  Primary Screen ZIL12b: 0.38
CCL2 protein levels [1]
  Secondary Screen ZCCL2: −1.5
IL12b protein levels [2]
  Secondary Screen ZIL12b: 1.58
CCL2 protein levels [5]
  Primary Screen ZCCL2: −1.62
IL-1beta expression
  RNA Screening Ifng + LPS Il1b: +
TGF-beta expression
  RNA Screening IL-4 Tgfb: −− (significant decrease in mRNA vs control (mRNA levels below 50% of control))
Arginase-1 expression
  mrna remaining at 1 µM: < 50%

## CC(=O)N1CCCn2nc(CNc3nc4ccccc4s3)cc2C1 [Compound 5, N-[(5-acetyl-5,6,7,8-tetrahydro-4H-pyrazolo[1,5-a][1,4]diazepin-2-yl)methyl]-1,3-benzothiazol-2-amine]
IL12b protein levels [3]
  activity at 10 µM: 127%
IL12b protein levels [4]
  Primary Screen ZIL12b: 1.64
CCL2 protein levels [1]
  Secondary Screen ZCCL2: −1.33
IL12b protein levels [2]
  Secondary Screen ZIL12b: 0.72
CCL2 protein levels [5]
  Primary Screen ZCCL2: 1.04

## CC(C)NC(=O)NCC1CCCN(Cc2ccc3c(c2)OCCO3)C1 (stereo not drawn) [Compound 6, N-{[1-(2,3-dihydro-1,4-benzodioxin-6-ylmethyl)piperidin-3-yl]methyl}-N′-isopropylurea]
IL12b protein levels [3]
  activity at 10 µM: 120%
IL12b protein levels [4]
  Primary Screen ZIL12b: 1.96
CCL2 protein levels [1]
  Secondary Screen ZCCL2: 0.16
IL12b protein levels [2]
  Secondary Screen ZIL12b: 2.4
CCL2 protein levels [5]
  Primary Screen ZCCL2: 0.94
IL-1beta expression
  RNA Screening Ifng + LPS Il1b: +
TGF-beta expression
  RNA Screening IL-4 Tgfb: − (significant decrease in mRNA vs control (mRNA levels above 50% of control))
Arginase-1 expression
  mrna remaining at 1 µM: > 50%

## CCC(=O)N1CCC(c2ccc3c(c2)OCO3)C(O)C1 (stereo not drawn) [Compound 15, 1-(4-(benzo[d][1,3]dioxol-5-yl)-3-hydroxypiperidin-1-yl)propan-1-one]
CCL2 protein levels [1]
  Secondary Screen ZCCL2: −0.95
IL12b protein levels [2]
  Secondary Screen ZIL12b: 0.25
IL-1beta expression
  RNA Screening Ifng + LPS Il1b: +
Arginase-1 expression
  mrna remaining at 1 µM: < 50%

## OCCc1cn(C2CCN(Cc3cccnc3)CC2)nn1 [Compound 11, 2-{1-[1-(3-pyridinylmethyl)-4-piperidinyl]-1H-1,2,3-triazol-4-yl}ethanol]
IL12b protein levels [3]
  activity at 10 µM: 127%
IL12b protein levels [4]
  Primary Screen ZIL12b: −1.17
CCL2 protein levels [1]
  Secondary Screen ZCCL2: −1.46
IL12b protein levels [2]
  Secondary Screen ZIL12b: 2.04
CCL2 protein levels [5]
  Primary Screen ZCCL2: −2.99
IL-1beta expression
  RNA Screening Ifng + LPS Il1b: +
TGF-beta expression
  RNA Screening IL-4 Tgfb: − (significant decrease in mRNA vs control (mRNA levels above 50% of control))
Arginase-1 expression
  mrna remaining at 1 µM: < 50%

## CCCn1cc(NC(=O)NCc2nn(C)c3ccc(C)cc23)nn1 [Compound 1, N-[(1,5-dimethyl-1H-indazol-3-yl)methyl]-N′-(1-propyl-1H-1,2,3-triazol-4-yl)urea]
IL12b protein levels [3]
  activity at 10 µM: 134%
IL12b protein levels [4]
  Primary Screen ZIL12b: 0.93
CCL2 protein levels [1]
  Secondary Screen ZCCL2: −0.72
IL12b protein levels [2]
  Secondary Screen ZIL12b: 1.05
CCL2 protein levels [5]
  Primary Screen ZCCL2: −1.85

## O=C(O)c1nc[nH]c1C(=O)N1CCN(c2ccccn2)CC1 [Compound 9, 5-[(4-pyridin-2-ylpiperazin-1-yl)carbonyl]-1H-imidazole-4-carboxylic acid]
IL12b protein levels [3]
  activity at 10 µM: 131%
IL12b protein levels [4]
  Primary Screen ZIL12b: 0.54
CCL2 protein levels [1]
  Secondary Screen ZCCL2: −1.53
IL12b protein levels [2]
  Secondary Screen ZIL12b: 0.92
CCL2 protein levels [5]
  Primary Screen ZCCL2: −5.07
IL-1beta expression
  RNA Screening Ifng + LPS Il1b: +
TGF-beta expression
  RNA Screening IL-4 Tgfb: +
Arginase-1 expression
  mrna remaining at 1 µM: > 50%

## O=C(O)CCc1cc2n(n1)CCCN(Cc1c[nH]nc1C(=O)O)C2 [Compound 16, 4-((2-(2-carboxyethyl)-7,8-dihydro-4H-pyrazolo[1,5-a][1,4]diazepin-5(6H)-yl)methyl)-1H-pyrazole-3-carboxylic acid]
CCL2 protein levels [1]
  Secondary Screen ZCCL2: −0.84
IL12b protein levels [2]
  Secondary Screen ZIL12b: 0.56
IL-1beta expression
  RNA Screening Ifng + LPS Il1b: +
Arginase-1 expression
  mrna remaining at 1 µM: < 50%

## CCc1cc(NCCc2csc(N)n2)n2nc(C)c(C)c2n1 [Compound 4, N-[2-(2-amino-1,3-thiazol-4-yl)ethyl]-5-ethyl-2,3-dimethylpyrazolo[1,5-a]pyrimidin-7-amine]
IL12b protein levels [3]
  activity at 10 µM: 92%
IL12b protein levels [4]
  Primary Screen ZIL12b: 1.46
CCL2 protein levels [1]
  Secondary Screen ZCCL2: −1.61
IL12b protein levels [2]
  Secondary Screen ZIL12b: 0.58
CCL2 protein levels [5]
  Primary Screen ZCCL2: 1.08

## CC(=O)N1CC2(CCN(S(C)(=O)=O)CC2)CC1C(=O)O (stereo not drawn) [Compound 8, 2-acetyl-8-(methylsulfonyl)-2,8-diazaspiro[4.5]decane-3-carboxylic acid]
IL12b protein levels [3]
  activity at 10 µM: 118%
IL12b protein levels [4]
  Primary Screen ZIL12b: 0.13
CCL2 protein levels [1]
  Secondary Screen ZCCL2: −1.79
IL12b protein levels [2]
  Secondary Screen ZIL12b: 0.74
CCL2 protein levels [5]
  Primary Screen ZCCL2: −3.6

## CCc1n[nH]c(SCC(=O)NCCC(=O)Nc2nccs2)n1 [Compound 3, 3-({[(3-ethyl-1H-1,2,4-triazol-5-yl)thio]acetyl}amino)-N-1,3-thiazol-2-ylpropanamide]
CCL2 protein levels [1]
  Secondary Screen ZCCL2: 1.33
IL12b protein levels [2]
  Secondary Screen ZIL12b: 1.56
IL-1beta expression
  RNA Screening Ifng + LPS Il1b: =
TGF-beta expression
  RNA Screening IL-4 Tgfb: =
Arginase-1 expression
  mrna remaining at 1 µM: > 50%

## CC(=O)N1CCN(Cc2cnn(-c3ccccc3Cl)c2)CC(O)C1 (stereo not drawn) [Compound 10, 1-acetyl-4-{[1-(2-chlorophenyl)-1H-pyrazol-4-yl]methyl}-1,4-diazepan-6-ol]
IL12b protein levels [3]
  activity at 10 µM: 121%
IL12b protein levels [4]
  Primary Screen ZIL12b: 0.55
CCL2 protein levels [1]
  Secondary Screen ZCCL2: −0.36
IL12b protein levels [2]
  Secondary Screen ZIL12b: 1.64
CCL2 protein levels [5]
  Primary Screen ZCCL2: −1.59
IL-1beta expression
  RNA Screening Ifng + LPS Il1b: =
TGF-beta expression
  RNA Screening IL-4 Tgfb: −− (significant decrease in mRNA vs control (mRNA levels below 50% of control))
Arginase-1 expression
  mrna remaining at 1 µM: < 50%

## CNc1ncccc1C(=O)N1CCC2(CC1)CC(C(=O)O)N(C)C2 (stereo not drawn) [Compound 14, 2-methyl-8-{[2-(methylamino)-3-pyridinyl]carbonyl}-2,8-diazaspiro[4.5]decane-3-carboxylic acid]
IL12b protein levels [3]
  activity at 10 µM: 122%

Reference: patent US11344559B2, “PI3KGAMMA inhibitors” (The Regents of the University of California, priority 2019, dated 2022)
